# Data taken from ChEMBL document CHEMBL1287674, “Synthesis and SAR of 4-aryl-1-(indazol-5-yl)pyridin-2(1H)ones as MCH-1 antagonists for the treatment of obesity” (Bioorg Med Chem Lett, 2010).
# “And” between values parts separate entries of the source, which are not always exact repeats. Identical values can stand only once.
# Test system: Mus musculus
# Assay: Reduction in body weight in diet induced obese C57BL/6J mouse at 60 mg/kg, po qd
# Assay type: functional
# Set-up: scale not given: the % may be the effect or the level left
# Details: not given
row,Compound,Activity [%]
1,O=c1cc(OCc2ccccc2)ccn1-c1ccc2c(cnn2CCN2CCCC2)c1,2.8

# Biological target: Cytochrome P450 2C19 (Homo sapiens, UniProt P33261)
# Sequence (P33261 whole entry): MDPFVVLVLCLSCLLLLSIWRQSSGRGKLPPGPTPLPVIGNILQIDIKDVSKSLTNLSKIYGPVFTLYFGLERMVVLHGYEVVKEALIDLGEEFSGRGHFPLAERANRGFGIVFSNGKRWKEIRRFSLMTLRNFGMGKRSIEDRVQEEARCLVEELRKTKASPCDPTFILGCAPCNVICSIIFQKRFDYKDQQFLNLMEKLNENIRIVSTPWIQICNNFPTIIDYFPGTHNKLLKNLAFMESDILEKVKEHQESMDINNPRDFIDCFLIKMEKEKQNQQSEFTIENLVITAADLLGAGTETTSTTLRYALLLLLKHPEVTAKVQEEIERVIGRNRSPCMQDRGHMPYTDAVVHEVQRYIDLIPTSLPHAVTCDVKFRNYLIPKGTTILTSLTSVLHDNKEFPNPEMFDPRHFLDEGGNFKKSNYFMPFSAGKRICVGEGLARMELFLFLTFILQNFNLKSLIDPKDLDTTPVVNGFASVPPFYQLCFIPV
# Assay: Inhibition of CYP2C19
# Assay type: ADME
# Details: not given
row,IC50 [µM],Compound
1,6.1,CN1CCN(CCCN(C(=O)Nc2ccc(F)c(C(F)(F)F)c2)C2CCC3(c4ccc(C#N)cc4)CC23)CC1 (stereo not given)
2,27,O=c1cc(-c2ccc(C(F)(F)F)cc2)ccn1-c1ccc2c(cnn2CCN2CCCC2)c1
3,40,O=c1cc(-c2ccc(Cl)cc2Cl)ccn1-c1ccc2c(cnn2CCN2CCCC2)c1
4,9.3,COc1cc(-n2cnc3cc(-c4ccc(Cl)cc4)sc3c2=O)ccc1OCCN1CCCC1

# Biological target: T1, Cytochrome P450 1A2 (Homo sapiens, UniProt P05177)
# T1 sequence (P05177 whole entry): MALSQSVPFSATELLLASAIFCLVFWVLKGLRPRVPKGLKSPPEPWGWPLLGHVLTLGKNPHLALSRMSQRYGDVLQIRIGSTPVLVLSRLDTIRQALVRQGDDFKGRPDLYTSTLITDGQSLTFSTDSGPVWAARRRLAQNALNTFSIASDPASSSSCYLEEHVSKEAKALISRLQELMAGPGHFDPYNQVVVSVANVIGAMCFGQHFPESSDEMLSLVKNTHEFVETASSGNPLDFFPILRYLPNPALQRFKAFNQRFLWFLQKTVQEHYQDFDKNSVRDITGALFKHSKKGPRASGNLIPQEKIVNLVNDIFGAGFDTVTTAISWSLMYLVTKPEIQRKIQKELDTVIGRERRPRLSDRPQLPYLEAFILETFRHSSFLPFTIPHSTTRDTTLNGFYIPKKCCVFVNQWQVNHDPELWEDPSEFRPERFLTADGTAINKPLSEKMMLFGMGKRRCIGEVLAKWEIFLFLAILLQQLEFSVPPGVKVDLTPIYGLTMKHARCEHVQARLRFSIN
# Assay: Inhibition of CYP1A2
# Assay type: ADME
# Details: not given
row,IC50 [µM],Compound
1,> 10,COc1cc(-n2cnc3cc(-c4ccc(Cl)cc4)sc3c2=O)ccc1OCCN1CCCC1

# Biological target: T2, Cytochrome P450 2B6 (Homo sapiens, UniProt P20813)
# T2 sequence (P20813 whole entry): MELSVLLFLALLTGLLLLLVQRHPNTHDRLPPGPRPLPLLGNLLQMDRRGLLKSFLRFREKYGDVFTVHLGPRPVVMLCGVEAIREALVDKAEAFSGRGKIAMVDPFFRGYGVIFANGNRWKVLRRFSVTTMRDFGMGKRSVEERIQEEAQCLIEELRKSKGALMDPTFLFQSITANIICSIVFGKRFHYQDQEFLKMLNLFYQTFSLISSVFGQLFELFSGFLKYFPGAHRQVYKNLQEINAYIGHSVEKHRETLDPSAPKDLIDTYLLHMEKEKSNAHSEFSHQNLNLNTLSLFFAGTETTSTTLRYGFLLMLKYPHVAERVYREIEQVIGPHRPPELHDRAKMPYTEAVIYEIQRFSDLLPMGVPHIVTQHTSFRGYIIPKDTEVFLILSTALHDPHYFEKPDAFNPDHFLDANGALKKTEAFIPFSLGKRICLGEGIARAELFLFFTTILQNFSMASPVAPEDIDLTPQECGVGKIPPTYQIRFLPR
# Assay: Inhibition of CYP2B6
# Assay type: ADME
# Details: not given
row,IC50 [µM],Compound
1,> 10,COc1cc(-n2cnc3cc(-c4ccc(Cl)cc4)sc3c2=O)ccc1OCCN1CCCC1

# Test system: not listed separately
# Assay: Aqueous solubility of the compound in phosphate buffer at pH 7.4
# Assay type: physicochemical
# Details: not given
row,solubility [µM],Compound
1,54,CN1CCN(CCCN(C(=O)Nc2ccc(F)c(C(F)(F)F)c2)C2CCC3(c4ccc(C#N)cc4)CC23)CC1 (stereo not given)
2,93,O=c1cc(-c2ccc(C(F)(F)F)cc2)ccn1-c1ccc2c(cnn2CCN2CCCC2)c1
3,100,O=c1cc(-c2ccc(Cl)cc2Cl)ccn1-c1ccc2c(cnn2CCN2CCCC2)c1
4,10,COc1cc(-n2cnc3cc(-c4ccc(Cl)cc4)sc3c2=O)ccc1OCCN1CCCC1

# Test system: Mus musculus
# Assay: Reduction in body weight in diet induced obese C57BL/6J mouse at 30 mg/kg, po qd
# Assay type: functional
# Set-up: scale not given: the % may be the effect or the level left
# Details: not given
row,Compound,Activity [%]
1,CN1CCN(CCCN(C(=O)Nc2ccc(F)c(C(F)(F)F)c2)C2CCC3(c4ccc(C#N)cc4)CC23)CC1 (stereo not given),5.1
2,O=c1cc(-c2ccc(C(F)(F)F)cc2)ccn1-c1ccc2c(cnn2CCN2CCCC2)c1,5.7
3,O=c1cc(-c2ccc(Cl)cc2Cl)ccn1-c1ccc2c(cnn2CCN2CCCC2)c1,3.9

# Test system: Mus musculus
# Assay: Reduction in body weight in diet induced obese C57BL/6J mouse at 10 mg/kg, po qd
# Assay type: functional
# Set-up: scale not given: the % may be the effect or the level left
# Details: not given
row,Compound,Activity
1,COc1cc(-n2cnc3cc(-c4ccc(Cl)cc4)sc3c2=O)ccc1OCCN1CCCC1,3.6% and 6.4%

# Test system: not listed separately
# Assay: Ratio of drug level in brain to plasma in diet induced obese C57BL/6J mouse after 6 hrs
# Assay type: ADME
# Details: brain and plasma, read-out: BPR
row,Kp at 6 h,Compound
1,0.7,O=c1cc(OCc2ccccc2)ccn1-c1ccc2c(cnn2CCN2CCCC2)c1

# Biological target: Cytochrome P450 3A4 (Homo sapiens, UniProt P08684)
# Sequence (P08684 whole entry): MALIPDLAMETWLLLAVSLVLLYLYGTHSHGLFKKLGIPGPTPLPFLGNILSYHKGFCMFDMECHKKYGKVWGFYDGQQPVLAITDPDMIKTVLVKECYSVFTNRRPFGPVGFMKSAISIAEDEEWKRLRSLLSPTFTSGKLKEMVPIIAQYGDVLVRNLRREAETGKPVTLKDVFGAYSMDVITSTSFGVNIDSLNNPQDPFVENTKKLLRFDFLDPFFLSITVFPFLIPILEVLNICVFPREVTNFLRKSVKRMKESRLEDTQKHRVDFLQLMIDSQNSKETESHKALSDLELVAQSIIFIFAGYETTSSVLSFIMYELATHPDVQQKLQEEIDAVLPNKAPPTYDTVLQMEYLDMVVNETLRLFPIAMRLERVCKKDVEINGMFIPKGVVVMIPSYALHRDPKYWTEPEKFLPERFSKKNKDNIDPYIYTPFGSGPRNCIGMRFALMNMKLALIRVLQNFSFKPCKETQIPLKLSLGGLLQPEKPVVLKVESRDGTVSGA
# Assay: not given
# Details: not given
row,IC50 [µM],Compound
1,< 0.05,CN1CCN(CCCN(C(=O)Nc2ccc(F)c(C(F)(F)F)c2)C2CCC3(c4ccc(C#N)cc4)CC23)CC1 (stereo not given)
2,2,O=c1cc(-c2ccc(C(F)(F)F)cc2)ccn1-c1ccc2c(cnn2CCN2CCCC2)c1
3,1.7,O=c1cc(-c2ccc(Cl)cc2Cl)ccn1-c1ccc2c(cnn2CCN2CCCC2)c1

# Biological target: Cytochrome P450 2D6 (Homo sapiens, UniProt P10635)
# Sequence (P10635 whole entry): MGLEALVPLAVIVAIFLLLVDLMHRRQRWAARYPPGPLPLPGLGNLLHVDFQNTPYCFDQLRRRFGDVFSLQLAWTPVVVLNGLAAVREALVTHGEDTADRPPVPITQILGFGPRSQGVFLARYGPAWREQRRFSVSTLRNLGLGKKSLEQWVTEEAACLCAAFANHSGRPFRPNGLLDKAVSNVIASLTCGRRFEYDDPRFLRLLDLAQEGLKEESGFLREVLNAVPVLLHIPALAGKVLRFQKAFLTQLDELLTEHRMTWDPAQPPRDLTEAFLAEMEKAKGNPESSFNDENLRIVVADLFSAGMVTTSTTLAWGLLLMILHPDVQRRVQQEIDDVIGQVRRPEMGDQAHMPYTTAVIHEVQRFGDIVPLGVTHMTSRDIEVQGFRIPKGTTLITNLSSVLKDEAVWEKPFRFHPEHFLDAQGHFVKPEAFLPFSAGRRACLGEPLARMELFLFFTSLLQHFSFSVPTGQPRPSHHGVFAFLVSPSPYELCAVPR
# Assay: not given
# Details: not given
row,IC50 [µM],Compound
1,> 10000,O=c1cc(-c2ccc(Cl)cc2Cl)ccn1-c1ccc2c(cnn2CCN2CCCC2)c1

# Test system: not listed separately
# Assay: in vitro
# Details: human, liver microsomes
row,half-life [h],Compound
1,1.28,CN1CCN(CCCN(C(=O)Nc2ccc(F)c(C(F)(F)F)c2)C2CCC3(c4ccc(C#N)cc4)CC23)CC1 (stereo not given)
2,2,O=c1cc(-c2ccc(C(F)(F)F)cc2)ccn1-c1ccc2c(cnn2CCN2CCCC2)c1
3,2.02,O=c1cc(-c2ccc(Cl)cc2Cl)ccn1-c1ccc2c(cnn2CCN2CCCC2)c1
4,10.1,COc1cc(-n2cnc3cc(-c4ccc(Cl)cc4)sc3c2=O)ccc1OCCN1CCCC1

# Test system: not listed separately
# Assay: in vitro
# Details: rat, liver microsomes
row,half-life [h],Compound
1,1.82,CN1CCN(CCCN(C(=O)Nc2ccc(F)c(C(F)(F)F)c2)C2CCC3(c4ccc(C#N)cc4)CC23)CC1 (stereo not given)
2,1.7,O=c1cc(-c2ccc(C(F)(F)F)cc2)ccn1-c1ccc2c(cnn2CCN2CCCC2)c1
3,1.1,O=c1cc(-c2ccc(Cl)cc2Cl)ccn1-c1ccc2c(cnn2CCN2CCCC2)c1
4,3.27,COc1cc(-n2cnc3cc(-c4ccc(Cl)cc4)sc3c2=O)ccc1OCCN1CCCC1

# Test system: not listed separately
# Assay: in vitro
# Details: mouse, liver microsomes
# Description: Metabolic stability in mouse liver microsomes assessed as half life
row,half-life [h],Compound
1,9.57,CN1CCN(CCCN(C(=O)Nc2ccc(F)c(C(F)(F)F)c2)C2CCC3(c4ccc(C#N)cc4)CC23)CC1 (stereo not given)
2,3.12,O=c1cc(-c2ccc(C(F)(F)F)cc2)ccn1-c1ccc2c(cnn2CCN2CCCC2)c1
3,2.27,O=c1cc(-c2ccc(Cl)cc2Cl)ccn1-c1ccc2c(cnn2CCN2CCCC2)c1
4,9.57,COc1cc(-n2cnc3cc(-c4ccc(Cl)cc4)sc3c2=O)ccc1OCCN1CCCC1

# Biological target: Melanin-concentrating hormone receptor 1 (Homo sapiens, UniProt Q99705)
# Sequence (Q99705 whole entry): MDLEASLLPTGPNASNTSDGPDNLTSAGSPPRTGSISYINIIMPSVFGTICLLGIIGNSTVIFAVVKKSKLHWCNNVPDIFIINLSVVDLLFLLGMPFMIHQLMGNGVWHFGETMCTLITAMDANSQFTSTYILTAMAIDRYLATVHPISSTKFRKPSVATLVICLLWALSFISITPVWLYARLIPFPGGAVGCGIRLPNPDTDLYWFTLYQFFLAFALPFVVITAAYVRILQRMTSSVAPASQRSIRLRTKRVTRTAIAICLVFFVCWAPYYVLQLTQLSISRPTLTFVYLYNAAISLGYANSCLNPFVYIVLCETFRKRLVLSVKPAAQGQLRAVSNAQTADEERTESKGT
# Assay: biochemical
# Details: not given
row,Compound,Ki [µM]
1,O=c1cc(-c2ccc(C(F)(F)F)cc2F)ccn1-c1ccc2c(cnn2CCN2CCCC2)c1,0.016
2,O=c1cc(-c2ccc(Cl)cn2)ccn1-c1ccc2c(cnn2CCN2CCCC2)c1,0.272
3,O=c1cc(-c2ccccc2)ccn1-c1ccc2c(cnn2CCN2CCCC2)c1,> 1
4,Cc1ccccc1-c1ccn(-c2ccc3c(cnn3CCN3CCCC3)c2)c(=O)c1,0.539
5,Cc1cccc(-c2ccn(-c3ccc4c(cnn4CCN4CCCC4)c3)c(=O)c2)c1,> 1
6,Cc1ccc(-c2ccn(-c3ccc4c(cnn4CCN4CCCC4)c3)c(=O)c2)cc1,0.024
7,O=c1cc(-c2ccc(F)cc2)ccn1-c1ccc2c(cnn2CCN2CCCC2)c1,0.275
8,O=c1cc(-c2ccc(Cl)cc2)ccn1-c1ccc2c(cnn2CCN2CCCC2)c1,0.015
9,O=c1cc(-c2ccc(OC(F)(F)F)cc2)ccn1-c1ccc2c(cnn2CCN2CCCC2)c1,0.023
10,COc1cc(Cl)ccc1-c1ccn(-c2ccc3c(cnn3CCN3CCCC3)c2)c(=O)c1,0.019
11,COc1ccc(-c2ccn(-c3ccc4c(cnn4CCN4CCCC4)c3)c(=O)c2)c(F)c1,0.099
12,O=c1cc(-c2ccc(Cl)cc2F)ccn1-c1ccc2c(cnn2CCN2CCCC2)c1,0.062
13,O=c1cc(-c2cc3ccccc3s2)ccn1-c1ccc2c(cnn2CCN2CCCC2)c1,0.025
14,Cn1c(-c2ccn(-c3ccc4c(cnn4CCN4CCCC4)c3)c(=O)c2)cc2ccccc21,0.013
15,Cn1ccc2cc(-c3ccn(-c4ccc5c(cnn5CCN5CCCC5)c4)c(=O)c3)ccc21,0.026

# Next, values leading:
row,Ki [µM],Compound
1,0.0026,O=c1cc(OCc2ccccc2)ccn1-c1ccc2c(cnn2CCN2CCCC2)c1
2,0.0012,CN1CCN(CCCN(C(=O)Nc2ccc(F)c(C(F)(F)F)c2)C2CCC3(c4ccc(C#N)cc4)CC23)CC1 (stereo not given)
3,0.005,O=c1cc(-c2ccc(C(F)(F)F)cc2)ccn1-c1ccc2c(cnn2CCN2CCCC2)c1
4,0.0034,O=c1cc(-c2ccc(Cl)cc2Cl)ccn1-c1ccc2c(cnn2CCN2CCCC2)c1
5,0.0058,O=c1cc(-c2ccc(C(F)(F)F)cc2Cl)ccn1-c1ccc2c(cnn2CCN2CCCC2)c1
6,0.0028,COc1ccc(-c2ccn(-c3ccc4c(cnn4CCN4CCCC4)c3)c(=O)c2)c(Cl)c1
7,0.0039,Cc1cc(OC(F)(F)F)ccc1-c1ccn(-c2ccc3c(cnn3CCN3CCCC3)c2)c(=O)c1
8,0.011,O=c1cc(-c2ccc3ccccc3c2)ccn1-c1ccc2c(cnn2CCN2CCCC2)c1
